# Test results reported in US8754101B2, “N-cyclobutyl-imidazopyridine-methylamine as TRPV1 antagonists” (Glaxo Group Limited, priority 2011, dated 2014).
# Where a name gives a salt, the structure may show the parent alone.
# Biological target: T1, TRPV1 receptor (Homo sapiens, UniProt Q8NER1)
# T1 construct: expressed in transfected cells; host or cells: HEK-293 cells stably expressing mitochondrial targeted Aequorin, transduced with TRPV1 BacMam
# Assay: Capsaicin assay for TRPV1 receptor antagonism (aequorin luminescence, HEK-293 cells expressing TRPV1)
# Type: cell-based
# Settings: HEK-293 cells expressing TRPV1, pH 7.4, challenge with 4×EC50 capsaicin, 15 min preincubation; read-out: pIC50 in the Capsaicin assay (converted)
# Protocol: Assays for the functional inhibition of TRPV1 Ion Channel by test compound using Capsaicin or Acid Stimulus challenge were performed.
# Compounds were dissolved in DMSO to 1 mM. An 11 point 4 fold serial dilution was prepared and 0.5 ul dispensed into Greiner black clear bottom 384 well plates.
# HEK-293 cells stably expressing mitochondrial targeted Aequorin were transfected with TRPV1 receptor bacmam at scale for cryopreservation in 1 ml vial aliquots. Cells can be stored at −140° C. for up to 18 months.
# 18-20 hours before assay, cells were rapidly thawed in a water bath at 37° C. and transferred to a 50 ml Falcon tube. Cells were resuspended in 9 mls of M1 ‘generic’ media (DMEM/F12 with 10% dialysed FBS-Invitrogen 041-95750V) for every 1 ml cells and then centrifuged for 5 min at 1000 rpm. The cell pellet was resuspended in ˜10 mls loading buffer (Tyrodes Base Buffer*+0.1% Pluronic Acid F68 solution+0.1% BSA) and the pH was adjusted to 7.4 for Capsaicin stimulus assay or 6.7 for Acid stimulus assay. Cell density was calculated using the Trypan Blue stain method and adjusted to 2.5×10 e6 cells/ml using loading buffer. Coelentrazine (DiscoverX Cat. No 0-0084L-500 uM stock made in 100% ethanol) was added to a final concentration of 5 uM and the falcon tube was covered in foil (to protect from light) and placed on a windmill rotator at room temperature for approximately 20 hours. *Base Buffer=Sigma kit T2145 was dissolved in deionised water, 20 mL HEPES solution (Sigma H0887) and 13.4 mL of NaHCO3 (Sigma S8761) and made up to 1 L.
# After loading, a cell count was taken and cell density adjusted accordingly depending on assay stimulus.
# For Capsaicin stimulus assay cells were diluted to 1.25×10 e5 cells/ml using dilution buffer (Tyrodes Base Buffer+0.1% Pluronic Acid F68 solution) at pH 7.4
# To the compound plates, the following additions were made:
# 20 ul dilution buffer at pH 7.4 followed by 20 ul cells were added to the test compound plate and any agonist activity measured as luminescence AUC counts. The compound/cell mix was incubated for 15 minutes and then challenged with 20 ul of a 4×EC50 concentration of Capsaicin (calculated on the day of assay), with concomitant luminescence detection.
# AUC data was exported from the reader and data analysis was performed using 4 parameter logistic model, with data normalised to nominal high and low controls within plate.
# T1 sequence (Q8NER1 whole entry): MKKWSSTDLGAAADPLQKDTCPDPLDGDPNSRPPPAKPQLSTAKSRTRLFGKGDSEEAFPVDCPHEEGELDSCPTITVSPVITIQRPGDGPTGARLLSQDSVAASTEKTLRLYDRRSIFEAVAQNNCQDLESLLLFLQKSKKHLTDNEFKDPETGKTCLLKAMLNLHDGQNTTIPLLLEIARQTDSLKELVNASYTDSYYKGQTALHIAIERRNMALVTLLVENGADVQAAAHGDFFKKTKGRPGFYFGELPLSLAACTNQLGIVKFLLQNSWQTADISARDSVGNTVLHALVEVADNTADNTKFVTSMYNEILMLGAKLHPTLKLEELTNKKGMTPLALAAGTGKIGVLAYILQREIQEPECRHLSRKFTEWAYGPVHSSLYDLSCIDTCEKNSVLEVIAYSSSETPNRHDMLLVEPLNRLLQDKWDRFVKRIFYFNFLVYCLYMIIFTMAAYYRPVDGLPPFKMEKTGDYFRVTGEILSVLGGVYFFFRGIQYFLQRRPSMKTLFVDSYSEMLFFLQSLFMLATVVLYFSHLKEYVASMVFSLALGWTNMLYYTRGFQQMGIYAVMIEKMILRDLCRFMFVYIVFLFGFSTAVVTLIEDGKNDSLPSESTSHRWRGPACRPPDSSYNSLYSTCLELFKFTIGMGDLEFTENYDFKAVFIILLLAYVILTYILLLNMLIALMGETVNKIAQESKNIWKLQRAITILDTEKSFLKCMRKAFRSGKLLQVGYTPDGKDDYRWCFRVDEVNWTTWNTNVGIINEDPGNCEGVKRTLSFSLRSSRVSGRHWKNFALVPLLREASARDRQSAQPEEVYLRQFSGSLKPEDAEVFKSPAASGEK
row,IC50,SMILES
1,1.26 to 100 nM,"FC(F)(F)c1cccc(O[C@H]2C[C@H](NCc3cccn4ccnc34)C2)c1Cl [Example 4, trans-3-{[2-Chloro-3-(trifluoromethyl)phenyl]oxy}-N-(imidazo[1,2-a]pyridin-8-ylmethyl)cyclobutanamine]"
2,1.26 to 100 nM,"FC(F)(F)c1cccc(O[C@H]2C[C@H](NCc3cccn4ccnc34)C2)c1 [Example 1, trans-N-(Imidazo[1,2-a]pyridin-8-ylmethyl)-3-{[3-(trifluoromethyl)phenyl]oxy}cyclobutanamine]"
3,1.26 to 100 nM,"CC(C)(C)c1c(F)cc(O[C@H]2C[C@@H](NCc3cccn4ccnc34)C2)cc1F [Example 12, cis-3-{[4-(1,1-Dimethylethyl)-3,5-difluorophenyl]oxy}-N-(imidazo[1,2-a]pyridin-8-ylmethyl)cyclobutanamine]"
4,1.26 to 100 nM,"FC(F)(F)c1cc(O[C@H]2C[C@H](NCc3cccn4ccnc34)C2)ccc1Cl [Example 6, trans-3-{[4-Chloro-3-(trifluoromethyl)phenyl]oxy}-N-(imidazo[1,2-a]pyridin-8-ylmethyl)cyclobutanamine]"
5,1.26 to 100 nM,"Clc1cccc(O[C@H]2C[C@H](NCc3cccn4ccnc34)C2)c1Cl [Example 2, trans-3-[(2,3-Dichlorophenl)oxy]-N-(imidazo[1,2-a]pyridin-8-ylmethyl)cyclobutanamine]"
6,1.26 to 100 nM,"OCc1cnc2c(CN[C@H]3C[C@H](Oc4cccc(Cl)c4Cl)C3)cccn12 [Example 15, {8-[({trans-3-[(2,3-Dichlorophenyl)oxy]cyclobutyl}amino)methyl]imidazo[1,2-a]pyridin-3-yl}methanol]"
7,1.26 to 100 nM,"CC(C)(C)c1c(F)cc(O[C@H]2C[C@H](NCc3cccn4ccnc34)C2)cc1F [Example 11, trans-3-{[4-(1,1-Dimethylethyl)-3,5-difluorophenyl]oxy}-N-(imidazo[1,2-a]pyridin-8-ylmethyl)cyclobutanamine]"
8,1.26 to 100 nM,"FC(F)(F)c1ccc(O[C@H]2C[C@H](NCc3cccn4ccnc34)C2)c(Cl)c1 [Example 8, trans-3-{[2-Chloro-4-(trifluoromethyl)phenyl]oxy}-N-(imidazo[1,2-a]pyridin-8-ylmethyl)cyclobutanamine]"

# Second part, the compound before the results:
row,SMILES,IC50
1,"Fc1ccc(O[C@H]2C[C@H](NCc3cccn4ccnc34)C2)cc1C(F)(F)F [Example 7, trans-3-{[4-Fluoro-3-(trifluoromethyl)phenyl]oxy}-N-(imidazo[1,2-a]pyridin-8-ylmethyl)cyclobutanamine]",1.26 to 100 nM
2,"Fc1ccc(O[C@H]2C[C@H](NCc3cccn4ccnc34)C2)cc1Cl [Example 5, trans-3-[(3-Chloro-4-fluorophenyl)oxy]-N-(imidazo[1,2-a]pyridin-8-ylmethyl)cyclobutanamine, trifluoroacetate]",1.26 to 100 nM
3,"OCc1ccc(CN[C@H]2C[C@H](Oc3ccc(F)c(C(F)(F)F)c3)C2)c2nccn12 [Example 14, (8-{[(trans-3-{[4-Fluoro-3-(trifluoromethyl)phenyl]oxy}cyclobutyl)amino]methyl}imidazo[1,2-a]pyridin-5-yl)methanol]",1.26 to 100 nM
4,"FC(F)(F)c1cc(Cl)ccc1O[C@H]1C[C@H](NCc2cccn3ccnc23)C1 [Example 9, trans-3-{[4-Chloro-2-(trifluoromethyl)phenyl]oxy}-N-(imidazo[1,2-a]pyridin-8-ylmethyl)cyclobutanamine]",1.26 to 100 nM
5,"OCc1ccc(CN[C@H]2C[C@H](Oc3cccc(Cl)c3Cl)C2)c2nccn12 [Example 13, {8-[({trans-3-[(2,3-Dichlorophenyl)oxy]cyclobutyl}amino)methyl]imidazo[1,2-a]pyridin-5-yl}methanol]",1.26 to 100 nM

# System: i.v. Capsaicin Induced Bronchoconstriction
# Assay: Inhibition of i.v. capsaicin induced bronchoconstriction in anesthetized guinea pigs
# Type: in vivo
# Settings: Cavia porcellus, intra-tracheal dosing 1 hour before capsaicin 20 ug/kg i.v., estimated from dose response 0.005-5 mg/kg
# Protocol: Male Hartley Guinea Pigs weighing between 400 and 700 g were anesthetized with ketamine/xylazine mixture (88/15 mg/kg, i.m.). Animals were placed on their back, a toe pinch was performed to ensure depth of anaesthesia and a section of skin and fur was dissected away from the neck. The trachea, jugular vein, and carotid artery were isolated and cannulated to allow for ventilation, drug delivery, and blood pressure monitoring. Compounds were delivered via intra-tracheal delivery (in 200 uL of 0.5% Tween 80) 1 hour before capsaicin challenge. Depth of anaesthesia was confirmed by toe pinch and the Guinea pigs were placed in the full body plethysmograph. The chamber was closed and the animal was paralyzed by administration of Gallamine (2 mg/kg i.v.). Animals were ventilated at ˜1.0 mL/110 g, 60-65 breaths per minute by a Harvard Apparatus rodent respirator. Blood pressure and heart rate were continuously monitored to assess the level of anaesthesia, with supplemental anaesthetic doses given as required to maintain the proper level of anaesthesia. […] The BioWindow Cardio Pulmonary Software version 1.02 (Modular Instruments, Inc.) recorded arterial pressure, pulmonary pressure and airflow. Air pressure delta (difference between maximum and minimum air pressure) was used as the primary readout of inhibition of the capsaicin induced bronchoconstriction. […]
row,SMILES,ED50
1,"Cl.Fc1ccc(O[C@H]2C[C@H](NCc3cccn4ccnc34)C2)cc1C(F)(F)F [Example 7A, trans-3-{[4-Fluoro-3-(trifluoromethyl)phenyl]oxy}-N-(imidazo[1,2-a]pyridin-8-ylmethyl)cyclobutanamine, hydrochloride salt]",0.033 mg/kg

# Same assay, conditions: dose 30 ug/kg intra-tracheal, 1 hour before capsaicin 20 ug/kg i.v., n=3
row,SMILES,inhibition of capsaicin induced bronchoconstriction
1,"OCc1ccc(CN[C@H]2C[C@H](Oc3cccc(Cl)c3Cl)C2)c2nccn12 [Example 13, {8-[({trans-3-[(2,3-Dichlorophenyl)oxy]cyclobutyl}amino)methyl]imidazo[1,2-a]pyridin-5-yl}methanol]",61% (+/−16.6%)

# System: not listed separately
# Assay: Solubility in simulated lung fluid
# Type: physicochemical
# Settings: Phosphate buffer, pH 6.9, 0.75 mM lecithin, 0.1% BSA, 37° C. over 4 hours
row,solubility at 4 h,SMILES
1,1780 µg/mL,"Fc1ccc(O[C@H]2C[C@H](NCc3cccn4ccnc34)C2)cc1C(F)(F)F.O=C(O)/C=C\C(=O)O [Example 7B, trans-3-{[4-Fluoro-3-(trifluoromethyl)phenyl]oxy}-N-(imidazo[1,2-a]pyridin-8-ylmethyl)cyclobutanamine, maleate salt]"
